Test results taken from patent publication US8404738B2 (Hoffmann-La Roche Inc., priority 2011, dated 2013).

How the values were obtained:
recombinant human HDAC8 = target: T1, recombinant human HDAC8 (Homo sapiens, UniProt Q9BY41); assay: HDAC8 inhibition: recombinant HDAC8 fluorometric assay; assay type: biochemical; settings: recombinant human HDAC8, substrate Ac-Arg-His-Lys-Lys(ε-acetyl)-AMC; read-out: HDAC8 IC50
T1 construct: made in house; host or cells: insect cells
T1 sequence (Q9BY41 1-377): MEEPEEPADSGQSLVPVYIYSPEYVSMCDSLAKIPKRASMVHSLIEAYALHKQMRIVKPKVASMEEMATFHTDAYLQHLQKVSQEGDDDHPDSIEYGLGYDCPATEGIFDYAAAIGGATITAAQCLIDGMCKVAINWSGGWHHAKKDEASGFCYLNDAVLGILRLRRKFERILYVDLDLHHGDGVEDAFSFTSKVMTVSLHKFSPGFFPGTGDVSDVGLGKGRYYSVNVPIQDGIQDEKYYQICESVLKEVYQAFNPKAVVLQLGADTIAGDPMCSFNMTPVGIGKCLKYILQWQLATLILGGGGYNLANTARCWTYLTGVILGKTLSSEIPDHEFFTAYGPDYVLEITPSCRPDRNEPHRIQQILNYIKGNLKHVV
Outline: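 Recombinant human HDAC8 from insect cells was preincubated with compound for 15 min at rt, then given Ac-Arg-His-Lys-Lys(ε-acetyl)-AMC substrate for 30 min at rt. IC50 came from normalized percent inhibition with curve fitting.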

[1] = system: p21 promoter-luciferase construct; assay: p21 reporter gene induction (HeLa cells, p21 promoter-luciferase construct); settings: for p21 RP3: relative gene level of p21 compared to MS275 at 3 μM; for p21 RP10: relative level of p21 compared to MS275 at 10 μM; for p21 RP30: relative level of p21 compared to MS275 at 30 μM;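 as to all read-outs here: transfected HeLa cells exposed to compound for 15 h, luciferase luminescence read from lysates, p21 promoter lacks p53 site, proxy for cellular HDAC1/2/3 inhibition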
HDAC6 = target: T2, HDAC6 (Homo sapiens, UniProt Q9UBN7); assay: Tubulin acetylation cytoblot assay (A549 cells); assay type: cell-based; settings: 17-18 h incubation, tubulin acetylation as marker of HDAC6 inhibition, read-out: Tub-Ac EC50
T2 construct: endogenous in cells; host or cells: A549 cells
T2 sequence (Q9UBN7 1-1215): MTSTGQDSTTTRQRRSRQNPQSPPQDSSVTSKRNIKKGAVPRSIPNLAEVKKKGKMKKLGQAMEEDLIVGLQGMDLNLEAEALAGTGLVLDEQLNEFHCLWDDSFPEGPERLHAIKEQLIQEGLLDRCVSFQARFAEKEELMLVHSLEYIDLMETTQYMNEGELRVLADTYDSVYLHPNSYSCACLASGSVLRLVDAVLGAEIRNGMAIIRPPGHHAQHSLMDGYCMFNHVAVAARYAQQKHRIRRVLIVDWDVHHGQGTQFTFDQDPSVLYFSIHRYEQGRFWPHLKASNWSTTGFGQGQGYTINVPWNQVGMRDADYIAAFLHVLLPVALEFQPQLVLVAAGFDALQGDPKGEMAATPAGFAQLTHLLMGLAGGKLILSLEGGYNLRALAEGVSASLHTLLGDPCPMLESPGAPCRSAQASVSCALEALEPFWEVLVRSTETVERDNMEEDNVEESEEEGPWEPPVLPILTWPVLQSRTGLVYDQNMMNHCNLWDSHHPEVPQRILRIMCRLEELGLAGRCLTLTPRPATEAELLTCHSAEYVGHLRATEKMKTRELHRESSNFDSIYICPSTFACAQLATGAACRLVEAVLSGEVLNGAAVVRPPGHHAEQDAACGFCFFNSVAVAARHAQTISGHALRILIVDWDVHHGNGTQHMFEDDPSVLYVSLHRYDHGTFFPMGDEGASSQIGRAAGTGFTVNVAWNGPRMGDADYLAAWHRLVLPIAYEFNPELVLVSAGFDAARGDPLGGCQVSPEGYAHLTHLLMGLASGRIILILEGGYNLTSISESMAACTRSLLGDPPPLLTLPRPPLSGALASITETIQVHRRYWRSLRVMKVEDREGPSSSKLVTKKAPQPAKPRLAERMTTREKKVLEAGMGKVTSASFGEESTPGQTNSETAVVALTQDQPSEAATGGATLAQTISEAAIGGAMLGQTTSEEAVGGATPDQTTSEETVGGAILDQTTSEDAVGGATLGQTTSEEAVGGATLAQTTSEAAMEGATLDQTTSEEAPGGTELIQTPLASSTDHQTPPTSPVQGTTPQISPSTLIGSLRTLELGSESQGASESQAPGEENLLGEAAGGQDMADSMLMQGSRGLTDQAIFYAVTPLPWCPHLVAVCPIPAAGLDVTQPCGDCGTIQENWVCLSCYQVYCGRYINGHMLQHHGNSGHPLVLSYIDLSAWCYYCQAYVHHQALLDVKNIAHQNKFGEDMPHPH
Outline: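 Cells were exposed to compound for 17-18 h, then fixed with formaldehyde and permeabilized with cold MeOH. They were probed for 4 h at 4° C with anti-acetylated tubulin plus HRP anti-mouse IgG (each 1:750), and read by ECL luminescence. EC50 values came from curves normalized to top and bottom controls.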

| Compound | IC50 (recombinant human HDAC8) | EC50 (HDAC6) | p21 RP3 [1] | p21 RP10 [1] | p21 RP30 [1] |
| --- | --- | --- | --- | --- | --- |
| O=C(NO)c1ccc(NC2CCN(c3cccc(Cl)c3)C2=O)cc1F (stereo not shown) [Example 67, 4-[1-(3-Chloro-phenyl)-2-oxo-pyrrolidin-3-ylamino]-2-fluoro-N-hydroxy-benzamide] | 2120 nM | 6230 nM | 0.40 | 0.17 | 0.02 |
| O=C(NO)c1ccc(NC2CC(=O)N(c3cccc(Cl)c3)C2)cc1 (stereo not shown) [Example 72, 4-[1-(3-Chloro-phenyl)-5-oxo-pyrrolidin-3-ylamino]-N-hydroxy-benzamide] | 1480 nM | 2340 nM | 0.16 | 0.14 | 0.09 |
| CC1C(=O)N(c2ccc(Cl)cc2)CC1Nc1ccc(C(=O)NO)cc1 (stereo not shown) [Example 78, 4-[1-(4-Chloro-phenyl)-4-methyl-5-oxo-pyrrolidin-3-ylamino]-N-hydroxy-benzamide] | 1830 nM | 1810 nM | 0.64 | 0.15 | 0.04 |
| O=C(NO)c1ccc(NC2CCN(c3ccccc3)C2)cc1 (stereo not shown) [Example 79, N-Hydroxy-4-(1-phenyl-pyrrolidin-3-ylamino)-benzamide] | 1700 nM | 4540 nM | 0.21 | 0.09 | 0.04 |
| O=C(NO)c1ccc(NC2CCN(c3ccc(Cl)cc3)C2)cc1 (stereo not shown) [Example 80, 4-[1-(4-Chloro-phenyl)-pyrrolidin-3-ylamino]-N-hydroxy-benzamide] | 4650 nM | 4260 nM | 0.37 | 0.08 | −0.05 |
| O=C(NO)c1ccc(NC2CCN(c3c(Cl)cccc3Cl)C2)cc1 (stereo not shown) [Example 81, 4-[1-(2,6-Dichloro-phenyl)-pyrrolidin-3-ylamino]-N-hydroxy-benzamide] | 1920 nM | 720 nM | 0.08 | −0.04 | −0.01 |
| O=C(NO)c1ccc(NC2CCN(c3ccc(Cl)cc3Cl)C2)cc1 (stereo not shown) [Example 82, 4-[1-(2,4-Dichloro-phenyl)-pyrrolidin-3-ylamino]-N-hydroxy-benzamide] | 2360 nM | 1430 nM | 0.14 | −0.08 | −0.06 |
| CC1(Nc2ccc(C(=O)NO)cc2)C(=O)N(Cc2ccccc2)c2ccccc21 (stereo not shown) [Example 91, 4-(1-Benzyl-3-methyl-2-oxo-2,3-dihydro-1H-indol-3-ylamino)-N-hydroxy-benzamide] | 1280 nM | 5230 nM | 2.06 | 2.66 | 0.84 |
| CC1(Nc2ccc(C(=O)NO)cc2)C(=O)N(Cc2ccccc2Cl)c2ccccc21 (stereo not shown) [Example 92] | 1740 nM | 330 nM | 0.56 | 0.20 | 0.40 |
| CC1(Nc2ccc(C(=O)NO)cc2)C(=O)N(Cc2cccc(Cl)c2)c2ccccc21 (stereo not shown) [Example 93, 4-[1-(3-chloro-benzyl)-3-methyl-2-oxo-2,3-dihydro-1H-indol-3-ylamino)-N-hydroxy-benzamide] | 1920 nM | 410 nM | 0.58 | 0.12 | 0.05 |
| CC1(Nc2ccc(C(=O)NO)cc2)C(=O)N(c2cccc(Cl)c2)c2ccccc21 (stereo not shown) [Example 96, 4-[1-(3-chloro-phenyl)-3-methyl-2-oxo-2,3-dihydro-1H-indol-3-ylamino)-N-hydroxy-benzamide] | 1400 nM | 320 nM | 0.86 | 1.34 | 0.02 |
| CC1(Nc2ccc(C(=O)NO)cc2)C(=O)N(c2ccc(Cl)cc2)c2ccc(F)cc21 (stereo not shown) [Example 97, 4-[1-(4-Chloro-phenyl)-5-fluoro-3-methyl-2-oxo-2,3-dihydro-1H-indol-3-ylamino]-N-hydroxy-benzamide] | 2080 nM | 200 nM | 2.39 | 3.56 | 0.07 |

Now from value to compound, other results behind:

| IC50 (recombinant human HDAC8) | EC50 (HDAC6) | Compound | p21 RP3 [1] | p21 RP10 [1] | p21 RP30 [1] |
| --- | --- | --- | --- | --- | --- |
| 320 nM | 10200 nM | CC1(Nc2ccc(C(=O)NO)cc2)CCN(C(C)(C)c2ccccc2)C1=O (stereo not shown) [Example 64, N-Hydroxy-4-[3-methyl-1-(1-methyl-1-phenyl-ethyl)-2-oxo-pyrrolidin-3-ylamino]-benzamide] | 0.30 | 0.04 | 0.02 |
| 1250 nM | 2420 nM | O=C(NO)c1ccc(NC2CCN(c3ccccc3)C2=O)cc1F (stereo not shown) [Example 66, 2-Fluoro-N-hydroxy-4-(2-oxo-1-phenyl-pyrrolidin-3-ylamino)-benzamide] | 0.01 | 0.01 | 0.00 |
| 850 nM | 8230 nM | O=C(NO)c1ccc(NC2CCN(c3ccccc3)C2=O)c(Cl)c1 (stereo not shown) [Example 69, 3-Chloro-N-hydroxy-4-(2-oxo-1-phenyl-pyrrolidin-3-ylamino)-benzamide] | 0.36 | 0.15 | −0.03 |
| 1010 nM | 1840 nM | COc1cccc(N2CC(Nc3ccc(C(=O)NO)cc3)CC2=O)c1 (stereo not shown) [Example 74, N-Hydroxy-4-[1-(3-methoxy-phenyl)-5-oxo-pyrrolidin-3-ylamino]-benzamide] | −0.07 | 0.07 | 0.12 |
| 860 nM | 4560 nM | O=C(NO)c1ccc(NC2CC(=O)N(Cc3ccccc3)C2)cc1 (stereo not shown) [Example 75, 4-(1-Benzyl-5-oxo-pyrrolidin-3-ylamino)-N-hydroxy-benzamide] | 0.19 | 0.07 | 0.11 |
| 1210 nM | 1110 nM | O=C(NO)c1ccc(NC2CCN(c3ncccn3)C2)cc1 (stereo not shown) [Example 83, N-Hydroxy-4-(1-pyrimidin-2-yl-pyrrolidin-3-ylamino)-benzamide] | 0.37 | 0.11 | 0.08 |
| 1120 nM | 7310 nM | O=C(NO)c1ccc(NC2CCN(S(=O)(=O)c3ccc(F)cc3)C2)cc1 (stereo not shown) [Example 85, 4-[1-(4-Fluoro-benzenesulfonyl)-pyrrolidin-3-ylamino]-N-hydroxy-benzamide] | 0.35 | 0.10 | 0.05 |
| 850 nM | 80 nM | CC1(Nc2ccc(C(=O)NO)cc2)C(=O)N(c2ccccc2)c2ccccc21 (stereo not shown) [Example 95, N-hydroxy-4-(3-methyl-2-oxo-1-phenyl-2,3-dihydro-1H-indol-3-ylamino)-benzamide] | 0.58 | 0.39 | 0.60 |
